From the supplement of paper PMC8920030 come the findings set out here.

What all share (details): growth mode: biofilm, 24 h; exposure time: 24 h
Compound in experiment [1]: T1, CCC(C)CCCC(=O)N[C@@H](CCN)C(=O)N[C@H](C(=O)N[C@@H](CCN)C(=O)N[C@H]1CCNC(=O)[C@H]([C@@H](C)O)NC(=O)[C@H](CCN)NC(=O)[C@H](CCN)NC(=O)[C@H](CC(C)C)NC(=O)[C@@H](CC(C)C)NC(=O)[C@H](CCN)NC1=O)[C@@H](C)O [colistin]
Put plainly: minimum concentration eradicating biofilm below detection limit (MCK-E); higher = more biofilm tolerance. Here is the method: (§1)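 Clinical P. aeruginosa isolates were grown as static biofilms for 24 h at 37 °C in LB in half-area 96-well plates, then exposed for 24 h to colistin at 1, 4, 16, 64, 256 or […]. Surviving CFU were counted by spotting serial dilutions. MCK is the lowest tested concentration giving the stated log reduction in CFU versus an untreated control; '>1024' means the reduction was not reached at the top dose, and 1 is the lowest dose tested (≤1).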

Compound in experiment [2]: T2, NC[C@H]1O[C@H](O[C@H]2[C@H](O)[C@@H](O[C@H]3O[C@H](CO)[C@@H](O)[C@H](N)[C@H]3O)[C@H](N)C[C@@H]2N)[C@H](N)C[C@@H]1O [tobramycin]
Described as above. Here is the method: (§2)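 Clinical P. aeruginosa isolates were grown as static biofilms for 24 h at 37 °C in LB in half-area 96-well plates, then exposed for 24 h to tobramycin at 1, 4, 16, 64, 256 or […]. Surviving CFU were counted by spotting serial dilutions. MCK is the lowest tested concentration giving the stated log reduction in CFU versus an untreated control; '>1024' means the reduction was not reached at the top dose, and 1 is the lowest dose tested (≤1).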

Compound in experiment [3]: T1, colistin
Nature of the experiment: minimum concentration of killing, 1-log CFU reduction of biofilm (MCK90); higher = more biofilm tolerance. The protocol: as §1

Compound in experiment [4]: T1, colistin
Nature of the experiment: minimum concentration of killing, 2-log CFU reduction of biofilm (MCK99); higher = more biofilm tolerance. The protocol: as §1

Compound in experiment [5]: T2, tobramycin
Nature of the experiment: minimum concentration of killing, 1-log CFU reduction of biofilm (MCK90); higher = more biofilm tolerance. Here is the method:
as §2

Compound in experiment [6]: T2, tobramycin
Nature of the experiment: minimum concentration of killing, 2-log CFU reduction of biofilm (MCK99); higher = more biofilm tolerance. Here is the method: as §2

Compound in experiment [7]: T1, colistin
Put plainly: minimum concentration of killing, 4-log CFU reduction of biofilm (MCK99.99); higher = more biofilm tolerance. The protocol:
as §1

Compound in experiment [8]: T2, tobramycin
The description is as above. The protocol: as §2

Consider “Pseudomonas aeruginosa clinical isolate ESP037”, for which the “minimum concentration eradicating biofilm below detection limit” value in the experiment with colistin [1] was 64 µg/mL; with tobramycin [2] it was 256 µg/mL. For the same test system, the “minimum concentration of killing” value with colistin [3] was determined as 64 µg/mL; with colistin [4], 64 µg/mL; with tobramycin [5], 4 µg/mL; with tobramycin [6], 4 µg/mL; with colistin [7], 64 µg/mL; in the experiment with tobramycin [8], 64 µg/mL.
For the test system “Pseudomonas aeruginosa clinical isolate ESP070”, the “minimum concentration eradicating biofilm below detection limit” value in the experiment with colistin [1] was 1020 µg/mL; with tobramycin [2] it was above 1020 µg/mL. The “minimum concentration of killing” value is 64 µg/mL with colistin [3]; 256 µg/mL in the experiment with colistin [4]; 1020 µg/mL with tobramycin [5]; 1020 µg/mL with tobramycin [6]; 1020 µg/mL with colistin [7]; above 1020 µg/mL in the experiment with tobramycin [8].
Regarding “Pseudomonas aeruginosa clinical isolate ESP083”, the “minimum concentration eradicating biofilm below detection limit” value with colistin [1] is 256 µg/mL; in the experiment with tobramycin [2], above 1020 µg/mL. For the same test system, the “minimum concentration of killing” value with colistin [3] is 4 µg/mL; in the experiment with colistin [4], 64 µg/mL; with tobramycin [5], above 1020 µg/mL; with tobramycin [6] it was above 1020 µg/mL; with colistin [7], 256 µg/mL; with tobramycin [8], above 1020 µg/mL.
